The values that follow come from US11414378B2, “Anti-fungals compounds targeting the synthesis of fungal sphingolipids” (THE RESEARCH FOUNDATION FOR THE STATE UNIVERSITY OF NEW YORK, priority 2017, dated 2022).

One test deals with C. neoformans. The test is described as follows: In vitro susceptibility (MIC80) assay. In kind it is cell-based. As to conditions: Cryptococcus neoformans; lowest concentration that inhibited 80% of growth; YNB pH 7.0, HEPES, 37° C., 5% CO2. The protocol:
MICs was determined following the methods of the Clinical and Laboratory Standards Institutes (CLSI) with modifications. Yeast Nitrogen Base (YNB) medium (pH 7.0, 0.2% glucose) buffered with HEPES was used for MIC studies. […] The compound was serially diluted from 16 to 0.03 μg/ml, in a 96-well plate. The inoculum was prepared as described in the CLSI protocol M27A3 guidelines. The plates were incubated at 37° C. with 5% CO2 for 24 to 72 h and the optical density was measure at 450 nm. The MICs was determined as the lowest concentration of the compound that inhibited 80% of growth compared to the control.

The next test concerns C. neoformans cells. The test is described as follows: In vitro killing activity (K100) assay. The test is classed as cell-based, Cryptococcus neoformans. As to conditions: minimum concentration that kills 100% of C. neoformans cells in 48 h; for MFC: Cryptococcus neoformans. The procedure:
C. neoformans cells from a culture grown overnight were washed in PBS and resuspended in YNB buffered with HEPES at pH 7.4. The cells were counted, and 2×10^4 cells were incubated with different concentration of compounds in a final volume of 10 ml with a final concentration of 0.5% DMSO. The tubes were then incubated at 37° C. with 5% CO2 on a rotary shaker at 200 rpm. Aliquots were taken at time points and diluted, and […] were plated onto Yeast Extract-Peptone-Dextrose (YPD) plates. YPD plates were incubated in a 30° C. incubator and after 48 h, the numbers of CFU were counted and recorded.

In brackets after ≈: the same amount, converted by molar mass.

The term MIC80 denotes the lowest concentration that inhibits either 80% of growth or 80% of the strains tested, depending on the study. Higher therefore signals weaker potency. In turn, `N#Cc1ccc(C(=O)N/N=C/c2cc(Br)cc(Br)c2O)cc1` [Compound A11, 4-Cyano-N′-(3,5-dibromo-2-hydroxybenzylidene)benzohydrazide] came in with an MIC80 against C. neoformans of 0.06 µg/mL (≈ 0.142 µM). Further, in the test with C. neoformans cells, the MFC is > 1 µg/mL.
Consider `O=C(N/N=C/c1cc(Cl)cc(Cl)c1O)c1ccc(Br)c(Br)c1` [Compound A30, 3,4-Dibromo-N′-(3,5-dichloro-2-hydroxybenzylidene)benzohydrazide], for which the MIC80 with C. neoformans was < 0.03 µg/mL. In addition, the MFC in the test on C. neoformans cells is > 0.025 µg/mL.
`O=C(N/N=C/c1ccc(Br)cc1O)c1cc(Br)co1` [Compound H12, 4-Bromo-N′-(4-bromo-2-hydroxybenzylidene) furan-2-carbohydrazide]: the MIC80 against C. neoformans was determined as 0.5 µg/mL (≈ 1.29 µM). Besides, in the test with C. neoformans cells, the MFC is > 2 µg/mL.
Compound `O=C(N/N=C/c1cc(Br)cc(Br)c1O)c1ccc(OC(F)F)cc1` [Compound A23, 4-Difluoromethoxy-N′-(3,5-dibromo-2-hydroxybenzylidene)benzohydrazide] yielded an MIC80 in the test on C. neoformans of 0.12 µg/mL (≈ 0.259 µM).
Take `O=C(N/N=C/c1cc(Cl)ccc1O)c1ccc(Br)c(Br)c1` [Compound A31, 3,4-Dibromo-N′-(5-chloro-2-hydroxybenzylidene)benzohydrazide]: the MIC80 against C. neoformans came out at 0.06 µg/mL (≈ 0.139 µM). The MFC against C. neoformans cells is > 0.5 µg/mL.
In the same order, the values of `O=C(N/N=C/c1cc(F)ccc1O)c1ccc(Br)cc1Br` [Compound A4, 2,4-Dibromo-N′-(5-fluoro-2-hydroxybenzylidene)benzohydrazide] are 1 µg/mL (≈ 2.4 µM) and > 4 µg/mL.
In the same order, the values of `O=C(N/N=C/c1c(O)ccc2ccccc12)c1cc(Br)c(Br)o1` [Compound H10, 4,5-Dibromo-N′-(2-hydroxynaphthalen-1-yl)methylenefuran-2-carbohydrazide] are 0.12 µg/mL (≈ 0.274 µM) and > 0.5 µg/mL.
As to `O=C(N/N=C/c1cc(Br)ccc1O)c1cccc(OC(F)F)c1` [Compound A5, 3-Difluoromethoxy-N′-(5-bromo-2-hydroxybenzylidene)benzohydrazide], the MIC80 against C. neoformans stood at 0.12 µg/mL (≈ 0.312 µM). In the test on C. neoformans cells, the “K100* (μg/mL)” value was “Fungistatic”.
As for `O=C(N/N=C/c1cc(Br)cc(Br)c1O)c1ncc(Br)cn1` [Compound H1, 5-Bromo-N′-(3,5-dibromo-2-hydroxybenzylidene)pyrimidine-2-carbohydrazide], the MIC80 in the test with C. neoformans amounted to 0.25 µg/mL (≈ 0.522 µM). The MFC in the test with C. neoformans cells was > 2 µg/mL.
In the test with C. neoformans, `CN(C)c1ccc(C(=O)N/N=C/c2ccc(Br)cc2O)cc1` [Compound A16] had an MIC80 of 0.25 µg/mL (≈ 0.69 µM). The MFC against C. neoformans cells is > 1 µg/mL.
In the same order, the values of `O=C(N/N=C/c1cc(Br)cc(Br)c1O)c1ccc(C(F)(F)F)cc1F` [Compound A9, 2-Fluoro-4-trifluoromethyl-N′-(3,5-dibromo-2-hydroxybenzylidene)benzohydrazide] are 0.12 µg/mL (≈ 0.248 µM) and 0.5 µg/mL (≈ 1.03 µM).
In the same order, the values of `O=C(N/N=C/c1cc(Cl)ccc1O)c1cc(Br)cc(Br)c1` [Compound A40, 3,5-Dibromo-N′-(5-chloro-2-hydroxybenzylidene)benzohydrazide] are 0.12 µg/mL (≈ 0.277 µM) and 1 µg/mL (≈ 2.31 µM).
For `O=C(N/N=C/c1cc(Br)cc(Br)c1O)c1ccc(Br)c(Br)c1` [Compound A29, 3,4-Dibromo-N′-(3,5-dibromo-2-hydroxybenzylidene)benzohydrazide], in that order: 0.06 µg/mL (≈ 0.108 µM) and > 0.5 µg/mL.
In the test with C. neoformans, `O=C(N/N=C/c1cccc(Br)c1O)c1cccc(C(F)(F)F)c1` [Compound A25, 3-Trifluoromethyl-N′-(3-bromo-2-hydroxybenzylidene)benzohydrazide] showed an MIC80 of 1 µg/mL (≈ 2.58 µM). The MFC in the test on C. neoformans cells is 2 µg/mL (≈ 5.17 µM).
In turn, `O=C(N/N=C/c1cc(Br)ccc1O)c1ccc(Br)s1` [Compound H2, 5-Bromo-N′-(5-bromo-2-hydroxybenzylidene)thiophene-2-carbohydrazide] yielded an MIC80 against C. neoformans of 0.12 µg/mL (≈ 0.297 µM). For the same compound, the MFC with C. neoformans cells was > 0.5 µg/mL.
`O=C(N/N=C/c1ccc(Br)cc1O)c1ccoc1` [Compound H14, N′-(4-bromo-2-hydroxybenzylidene) furan-3-carbohydrazide] registered an MIC80 with C. neoformans of 0.5 µg/mL (≈ 1.62 µM). Also, the MFC in the test with C. neoformans cells was > 1 µg/mL.
The compound `O=C(N/N=C/c1cc(Br)ccc1O)c1ccc(C(F)(F)F)cc1F` [Compound A8, 2-Fluoro-4-trifluoromethyl-N′-(5-bromo-2-hydroxybenzylidene)benzohydrazide] had an MIC80 in the test on C. neoformans of 0.5 µg/mL (≈ 1.23 µM). Besides, the MFC with C. neoformans cells is 1 µg/mL (≈ 2.47 µM).
For `O=C(NN=Cc1ccc(Br)cc1O)c1cc(Br)c(Br)o1` [Compound H8, 4,5-Dibromo-N′-(4-bromo-2-hydroxybenzylidene)furan-2-carbohydrazide], in that order: 0.06 µg/mL (≈ 0.129 µM) and > 0.25 µg/mL.
For `O=C(N/N=C/c1cc(Br)ccc1O)c1ccc(OC(F)(F)F)cc1` [Compound A7, 4-Trifluoromethoxy-N′-(5-bromo-2-hydroxybenzylidene)benzohydrazide], in that order: 0.5 µg/mL (≈ 1.24 µM) and > 4 µg/mL.
For `O=C(N/N=C/c1cc(Br)cc(Br)c1O)c1cc(Br)c(Br)o1` [Compound H9, 4,5-Dibromo-N′-(3,5-dibromo-2-hydroxybenzylidene)furan-2-carbohydrazide], in that order: 0.12 µg/mL (≈ 0.22 µM) and > 0.5 µg/mL.
Take `O=C(N/N=C/c1ccc(Br)cc1O)c1cccc(C(F)(F)F)c1` [Compound A26, 3-Trifluoromethyl-N′-(4-bromo-2-hydroxybenzylidene)benzohydrazide]: in the test on C. neoformans, the MIC80 came out at 0.5 µg/mL (≈ 1.29 µM). The compound also yielded an MFC with C. neoformans cells of 1 µg/mL (≈ 2.58 µM).
For `O=C(N/N=C/c1ccc(Br)cc1O)c1ccc(Br)s1` [Compound H3, 5-Bromo-N′-(4-bromo-2-hydroxybenzylidene)thiophene-2-carbohydrazide], in that order: 0.12 µg/mL (≈ 0.297 µM) and > 0.5 µg/mL.
In the same order, the values of `O=C(N/N=C/c1c(O)ccc2ccccc12)c1ccc(Br)s1` [Compound H5, 5-Bromo-N′-((2-hydroxynaphthalen-1-yl)methylene)thiophene-2-carbohydrazide] are 0.12 µg/mL (≈ 0.32 µM) and > 0.5 µg/mL.
In the same order, the values of `O=C(N/N=C/c1cccc(Cl)c1O)c1cccc(C(F)(F)F)c1` [Compound A24, 3-Trifluoromethyl-N′-(3-chloro-2-hydroxybenzylidene)benzohydrazide] are 1 µg/mL (≈ 2.92 µM) and 4 µg/mL (≈ 11.7 µM).
In the case of `O=C(N/N=C/c1cc(Br)cc(Br)c1O)C1CCOCC1` [Compound H15, N′-(3,5-dibromo-2-hydroxybenzylidene)tetrahydro-2H-pyran-4-carbohydrazide], the MIC80 in the test with C. neoformans was found to be 0.5 µg/mL (≈ 1.23 µM). Also, the MFC in the test with C. neoformans cells was > 2 µg/mL.
As to `O=C(N/N=C/c1cc(C(F)(F)F)ccc1O)c1cccc(Br)c1` [Compound A14, 3-Bromo-N′-(2-hydroxy-5-trifluoromethylbenzylidene)benzohydrazide], the MIC80 against C. neoformans turned out to be 0.5 µg/mL (≈ 1.29 µM). Further, in the test with C. neoformans cells, the MFC was > 2 µg/mL.
For `O=C(N/N=C/c1ccc(Br)cc1O)c1cc(Br)cc(Br)c1O` [Compound A18, 3,5-Dibromo-2-hydroxy-N′-(4-bromo-2-hydroxybenzylidene)benzohydrazide], in that order: 0.25 µg/mL (≈ 0.507 µM) and 0.25 µg/mL (≈ 0.507 µM).
For the compound `O=C(N/N=C/c1cc(Br)cc(Br)c1O)c1cccc(Br)c1Br` [Compound A42, 2,3-Dibromo-N′-(3,5-dibromo-2-hydroxybenzylidene)benzohydrazide], the MIC80 in the test with C. neoformans turned out to be 0.5 µg/mL (≈ 0.9 µM). Further, in the test with C. neoformans cells, the MFC turned out to be 0.5 µg/mL (≈ 0.9 µM).
`O=C(N/N=C/c1cccc(Br)c1O)c1cccc(F)c1` [Compound A27, 3-Fluoro-N′-(3-bromo-2-hydroxybenzylidene)benzohydrazide] had an MIC80 in the test with C. neoformans of 1 µg/mL (≈ 2.97 µM). Moreover, the MFC in the test on C. neoformans cells was 2 µg/mL (≈ 5.93 µM).
For `O=C(N/N=C/c1cc(Br)ccc1O)c1cc(Br)c(Br)o1` [Compound H7, 4,5-Dibromo-N′-(5-bromo-2-hydroxybenzylidene) furan-2-carbohydrazide], in that order: 0.25 µg/mL (≈ 0.535 µM) and > 1 µg/mL.
In the same order, the values of `O=C(N/N=C/c1ccc(Br)cc1O)c1cc(Br)cc(Br)c1` [Compound A39, 3,5-Dibromo-N′-(4-bromo-2-hydroxybenzylidene)benzohydrazide] are 1 µg/mL (≈ 2.1 µM) and 1 µg/mL (≈ 2.1 µM).
In the same order, the values of `O=C(N/N=C/c1cc(Cl)cc(Cl)c1O)c1cc(Br)cc(Br)c1` [Compound A38, 3,5-Dibromo-N′-(3,5-dichloro-2-hydroxybenzylidene)benzohydrazide] are 0.5 µg/mL (≈ 1.07 µM) and 0.5 µg/mL (≈ 1.07 µM).
Consider `O=C(N/N=C/c1cc(Br)cc(Br)c1O)c1cnc2ccccc2c1` [Compound A10, N′-(3,5-dibromo-2-hydroxybenzylidene) quinolinylhydrazide], for which, in the test on C. neoformans, the MIC80 worked out at 0.25 µg/mL (≈ 0.557 µM). Moreover, the “K100* (μg/mL)” value in the test with C. neoformans cells is recorded as “Fungistatic”.
In the test with C. neoformans, `O=C(N/N=C/c1ccc(Br)cc1O)c1ccc(Br)c(Br)c1` [Compound A35, 3,4-Dibromo-N′-(4-bromo-2-hydroxybenzylidene)benzohydrazide] yielded an MIC80 of 0.06 µg/mL (≈ 0.126 µM). For the same compound, in the test on C. neoformans cells, the MFC is > 5 µg/mL.
`O=C(N/N=C/c1ccc(Br)cc1O)c1ccc(OC(F)F)cc1` [Compound A21, 4-Difluoromethoxy-N′-(4-bromo-2-hydroxybenzylidene)benzohydrazide] registered an MIC80 in the test on C. neoformans of 0.12 µg/mL (≈ 0.312 µM).
Still for that read-out and setting: the same measure for `O=C(N/N=C/c1cc(Br)ccc1O)c1ccc(OC(F)F)cc1` [Compound A22, 4-Difluoromethoxy-N′-(5-bromo-2-hydroxybenzylidene)benzohydrazide]: 0.25 µg/mL (≈ 0.649 µM).
